Measured values as given in EP4813403A1, “USE OF GLP-1R/GIPR DOUBLE-TARGET AGONIST IN PREPARING ANIMAL DRUG” (Hangzhou Zhongmeihuadong Pharmaceutical Co., Ltd., priority 2023, dated 2025).

Assays:
db/db mice = experiment: Pharmacodynamic effects in db/db mice, single subcutaneous administration (blood glucose); type: in vivo; conditions: single s.c. 10 nmol/kg
Description: In this study, 8-9 week old male db/db mice were used. The db/db mice were placed in an individual ventilated cage (IVC) facility with a controlled temperature (20-26°C) and humidity (40-70%) and a controlled 12h:12 h light-dark cycle. The mice can receive food and water ad libitum. Blood was sampled at the tail tip, and the random base blood glucose was measured by a Roche blood glucose meter. The mice were randomly divided into groups according to the random initial fasting blood glucose and initial body weight (n=6/group), and each group had similar body weight and blood glucose.
After a single subcutaneous administration, the random base blood glucoses were recorded at the set time point (0 to 120 hours, the recording of the random base blood glucose was stopped until there was no difference between the random base blood glucose of the compound and that of the vehicle group), and the daily body weight and food intake were also recorded. The data results were statistically analyzed using GraphPad Prism8, and the statistical differences among the groups were analyzed following a T-Test. Significant differences were identified at p<0.05.
Hypoglycemic Duration: the longest time during which the random base blood glucose of the compound has a significant difference (p<0.05) vs. the vehicle group. Table 13. Hypoglycemic Duration of the Compounds

human GLP-1R = human GLP-1R (Homo sapiens, UniProt P43220); experiment: In vitro binding activity to human GLP-1 receptor ([125I]GLP-1 displacement, crude cell membranes); design: expressed in transfected cells; conditions: ratio of the Ki value of the endogenous ligand to the Ki value of the test compound; larger ratio = stronger binding
Description: 89 µL of membrane dissolved in binding buffer (50 mM Hepes, pH 7.4, 5 mM MgCl2 , 5 mM EDTA, 0.005% TWEEN, 0.005% HSA) was transferred to a 96-well test plate (5 µg/well). The compound was serially diluted in DMSO, and then, 1 µL of the diluted compound or 100% DMSO was added to the test plate containing the membrane solution. 10 µL of [^125I] […] The test plate was left at room temperature for 90 minutes. The membrane complexes were harvested into a GF/B plate pre-coated with 0.5% PEI by using a Cell Harvester, and washed for 3 times with 500 µL of pre-cooled elution buffer (50 mM Hepes, pH 7.4, 500 mM NaCl) at 4°C. After drying at 37°C for 2 hours, 50 µL of scintillation fluid was added to each well. The plate was read with a MicroBeta2 scintillation counter after sealing and settling for at least 1 hour so as to determine the membrane bound radioligand level.
The IC50 concentration was converted to Ki (Ki was the inhibition constant) using the Cheng-Prusoff equation.

[1] = Pharmacokinetics following single administration in SD rats; conditions: male, Sprague-Dawley, rat, in vivo, sc
Description: The compound was administrated to male SD rats (230-268 g, n=3) at a dose of 50.0 nmol/kg (s.c.) or 25.0 nmol/kg (i.v.). […] 30.0 μL of thawed plasma sample was taken. 150 μL of acetonitrile solution (containing 5 ng·mL^-1 Verapamil , 50 ng·mL^-1 Glibenclamide, 200 ng·mL^-1 Tolbutamide and 200 ng·mL^-1 Diclofenac) were added to precipitate protein. The mixture was vortexed for 5 minutes, and centrifuged at 3700 rpm for 8 minutes. 70.0 μL of the supernatant was taken, into which 70.0 μL of 0.5% aqueous formic acid solution was added. The mixture was vortexed for 5 minutes. 15 μL of the mixture solution was sampled and injected into the LC-MS/MS to determine the drug concentration in plasma. 20.0 μL of thawed plasma sample was taken. 60 μL of acetonitrile solution (containing 5 ng·mL^-1 Verapamil, 50 ng·mL^-1 Glibenclamide, 200 ng·mL^-1 Tolbutamide and 200 ng·mL^-1 Diclofenac) were added to precipitate protein. […] The mixture was vortexed for 10 minutes. 10.0 μL of the mixture solution was sampled and injected into the LC-MS/MS to determine the drug concentration in plasma. 30.0 μL of thawed plasma sample was taken. 150 μL of acetonitrile solution (containing 5 ng·mL^-1 Verapamil, 50 ng·mL^-1 Glibenclamide, 200 ng·mL^-1 Tolbutamide and 200 ng·mL^-1 Diclofenac) were added to precipitate protein. The mixture was vortexed for 5 minutes, and centrifuged at 3700 rpm for 8 minutes. 70.0 μL of the supernatant was taken, into which 70.0 μL of 0.5% aqueous formic acid solution was added. The mixture was vortexed for 5 minutes. 10.0 μL of the mixture solution was sampled and injected into the LC-MS/MS to determine the drug concentration in plasma. […] Table 5 Pharmacokinetic Parameters after Subcutaneous Injection of Different Polypeptide Compounds to Rats

[2] = Group 1, longest time with p<0.05 vs. vehicle

Sequence of human GLP-1R (P43220 24-463): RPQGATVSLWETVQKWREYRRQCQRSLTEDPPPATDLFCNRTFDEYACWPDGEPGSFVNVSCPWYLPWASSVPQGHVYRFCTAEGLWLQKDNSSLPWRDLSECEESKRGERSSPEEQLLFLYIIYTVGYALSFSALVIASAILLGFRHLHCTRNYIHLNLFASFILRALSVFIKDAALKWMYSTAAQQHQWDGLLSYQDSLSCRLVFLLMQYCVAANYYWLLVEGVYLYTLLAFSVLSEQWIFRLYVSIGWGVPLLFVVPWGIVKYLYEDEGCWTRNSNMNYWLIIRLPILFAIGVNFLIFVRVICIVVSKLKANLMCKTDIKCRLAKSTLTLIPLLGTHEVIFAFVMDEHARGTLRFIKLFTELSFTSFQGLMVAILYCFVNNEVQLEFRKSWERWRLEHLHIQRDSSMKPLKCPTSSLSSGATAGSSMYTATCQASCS

For `CC[C@H](C)[C@H](NC(=O)C(C)(C)NC(=O)[C@H](Cc1ccc(O)cc1)NC(=O)[C@H](CC(=O)O)NC(=O)[C@H](CO)NC(=O)[C@@H](NC(=O)C(C)(Cc1ccccc1)NC(=O)[C@@H](NC(=O)CNC(=O)[C@H](CCC(=O)O)NC(=O)C(C)(C)NC(=O)[C@@H](N)Cc1ccc(O)cc1)[C@@H](C)O)[C@@H](C)O)C(=O)NC(C)(C)C(=O)N[C@@H](CC(C)C)C(=O)N[C@@H](CC(=O)O)C(=O)N[C@@H](CCCCN)C(=O)N[C@@H](CCC(N)=O)C(=O)N[C@@H](C)C(=O)N[C@@H](CCC(N)=O)C(=O)N[C@@H](C)C(=O)N[C@@H](CCC(=O)O)C(=O)N[C@@H](Cc1ccccc1)C(=O)N[C@H](C(=O)N[C@@H](CCCCNC(=O)COCCOCCNC(=O)COCCOCCNC(=O)CC[C@H](NC(=O)CC[C@H](NC(=O)CC[C@H](NC(=O)CCCCCCCCCCCCCCCCC(=O)O)C(=O)O)C(=O)O)C(=O)O)C(=O)N[C@@H](Cc1c[nH]c2ccccc12)C(=O)N[C@@H](CC(C)C)C(=O)N[C@@H](CC(C)C)C(=O)N[C@@H](CCCCN)C(=O)NCC(=O)NCC(=O)N1CCC[C@H]1C(=O)N[C@@H](CO)C(=O)N[C@@H](CO)C(=O)NCC(=O)N[C@@H](C)C(=O)N1CCC[C@H]1C(=O)N1CCC[C@H]1C(=O)N1CCC[C@H]1C(=O)N[C@@H](CO)C(=O)N[C@@H](CCCCN)C(N)=O)C(C)C` (stereo partly shown) [Compound P015], which “Hypoglycemic Duration” value (db/db mice; Group 2, longest time with p<0.05 vs. vehicle) is on record?
Its value is 32 h.

What about the “GLP-1R Ki ratio” value (human GLP-1R) of the same compound?
The value was 0.17.

What about the Tmax [1] of the same compound?
Its Tmax is 24 h.

What about the half-life [1] of the same compound?
Its half-life is 16.1 ± 1.21 h.

Which “hypoglycemic duration longer than that of Tirzepatide” value (db/db mice) does the source give for `CC[C@H](C)[C@H](NC(=O)C(C)(C)NC(=O)[C@H](Cc1ccc(O)cc1)NC(=O)[C@H](CC(=O)O)NC(=O)[C@H](CO)NC(=O)[C@@H](NC(=O)C(C)(Cc1ccccc1)NC(=O)[C@@H](NC(=O)CNC(=O)[C@H](CCC(=O)O)NC(=O)C(C)(C)NC(=O)[C@@H](N)Cc1ccc(O)cc1)[C@@H](C)O)[C@@H](C)O)C(=O)NC(C)(C)C(=O)N[C@@H](CC(C)C)C(=O)N[C@@H](CC(=O)O)C(=O)N[C@@H](CCCCN)C(=O)N[C@@H](CCC(N)=O)C(=O)N[C@@H](C)C(=O)N[C@@H](CCC(N)=O)C(=O)N[C@@H](C)C(=O)N[C@@H](CCC(=O)O)C(=O)N[C@@H](Cc1ccccc1)C(=O)N[C@H](C(=O)N[C@@H](CCCCN)C(=O)N[C@@H](Cc1c[nH]c2ccccc12)C(=O)N[C@@H](CC(C)C)C(=O)N[C@@H](CC(C)C)C(=O)N[C@@H](CCCCNC(=O)COCCOCCNC(=O)COCCOCCNC(=O)CC[C@H](NC(=O)CCCCCCCCCCCCCCCCC(=O)O)C(=O)O)C(=O)NCC(=O)NCC(=O)N1CCC[C@H]1C(=O)N[C@@H](CO)C(=O)N[C@@H](CO)C(=O)NCC(=O)N[C@@H](C)C(=O)N1CCC[C@H]1C(=O)N1CCC[C@H]1C(=O)N1CCC[C@H]1C(=O)N[C@@H](CO)C(=O)N[C@@H](CCCCN)C(N)=O)C(C)C` (stereo partly shown) [Compound P008] here?
Its value is “more than 16 hours”.

And the “inhibition of the blood glucose AUC, times of that of P001” value (db/db mice)?
Its value is 2.3 times.

What about the “Hypoglycemic Duration” value (db/db mice; [2]) of the same compound?
Its value is 72 h.

And the Tmax [1]?
Its Tmax is 13.3 ± 9.24 h.

And the half-life [1]?
The half-life was 18.7 ± 4.82 h.

Which “Hypoglycemic Duration” value (db/db mice; [2]) does the source give for `CC[C@H](C)[C@H](NC(=O)C(C)(C)NC(=O)[C@H](Cc1ccc(O)cc1)NC(=O)[C@H](CC(=O)O)NC(=O)[C@H](CO)NC(=O)[C@@H](NC(=O)C(C)(Cc1ccccc1)NC(=O)[C@@H](NC(=O)CNC(=O)[C@H](CCC(=O)O)NC(=O)C(C)(C)NC(=O)[C@@H](N)Cc1ccc(O)cc1)[C@@H](C)O)[C@@H](C)O)C(=O)NC(C)(C)C(=O)N[C@@H](CC(C)C)C(=O)N[C@@H](CC(=O)O)C(=O)N[C@@H](CCCCN)C(=O)N[C@@H](CCC(N)=O)C(=O)N[C@@H](C)C(=O)N[C@@H](CCC(N)=O)C(=O)N[C@@H](C)C(=O)N[C@@H](CCC(=O)O)C(=O)N[C@@H](Cc1ccccc1)C(=O)N[C@H](C(=O)N[C@@H](CCCCNC(=O)COCCOCCNC(=O)COCCOCCNC(=O)CC[C@H](NC(=O)CCCCCCCCCCCCCCCCC(=O)O)C(=O)O)C(=O)N[C@@H](Cc1c[nH]c2ccccc12)C(=O)N[C@@H](CC(C)C)C(=O)N[C@@H](CC(C)C)C(=O)N[C@@H](CCCCN)C(=O)NCC(=O)NCC(=O)N1CCC[C@H]1C(=O)N[C@@H](CO)C(=O)N[C@@H](CO)C(=O)NCC(=O)N[C@@H](C)C(=O)N1CCC[C@H]1C(=O)N1CCC[C@H]1C(=O)N1CCC[C@H]1C(=O)N[C@@H](CO)C(=O)N[C@@H](CCCCN)C(N)=O)C(C)C` (stereo partly shown) [Compound P007] here?
Its value is 56 h.

And the “GLP-1R Ki ratio” value (human GLP-1R)?
Its value is 0.47.

What about the Tmax [1] of the same compound?
Its Tmax is 7.33 ± 1.15 h.

And the half-life [1]?
The half-life was 15 ± 2.89 h.
